Assays:
PC12-HS cells [1] = assay: Evaluation method B: neurite-outgrowth promoting activity in the presence of NGF; format: cell-based, rat; settings: for Action on PC12-HS neurite-outgrowth promotion (500 ng/ml) / Neurite-outgrowth rate (%): NGF 10 ng/ml; for Action on PC12-HS neurite-outgrowth promotion (500 ng/ml): 3 days, class of neurite-outgrowth rate
Excerpt: (§1) As a model of the nerve cell, the NGF (nerve growth factor) highly sensitive strain of PC12 cell derived from the rat adrenal pheochromocytoma (hereinafter referred to as “PC12-HS cell”; JCRB cell bank, National Research and Development Institute of Health and Nutrition), which has been widely used as a suitable model for research on human neurodegenerative disease, was used. As the test compound, […] of trimethine cyanine dye compounds; NK-5 (Chemical formula 2), NK-36 (Chemical formula 3), NK-44 (Chemical formula 5) and dye compounds represented by Chemical formulae 12 to 18, and NK-6 (Chemical formula 7), which is a monomethine cyanine dye, were selected. In addition, two kinds of ethylene cross-linked dyes (Chemical formulae 19 and 20), 15 kinds of monomethine cyanine dyes (Chemical formulae 21 to 35), and seven kinds of trimethine cyanine dyes (Chemical formulae 36 to 42), which were expected to have a good neurocyte growth acceleration activity and/or neurite-outgrowth promoting activity in the screening disclosed in Patent literature 6, were also re-evaluated for comparison. The Chemical formulae 12 to 42 are shown below.
(§2) The cyanine dye compounds subjected to the test (purity 97% by mass or more, synthesized by Hayashibara Co., Ltd., Okayama, Japan) were individually dissolved in DMSO (product number “D8418”, commercialized by SIGMA Corporation) at a concentration of 5 mg/ml, and the solutions were then filtered through DMSO-resistant membrane (“Millex-LGS LLG025SS”, commercialized by Millipore Corporation) and stored at 25° C. in a dark condition. At the time of use, they were further diluted with Dulbecco's Medium (hereinafter, abbreviated as “D-MEM medium”, commercialized by Nissui Pharmaceutical Co., Ltd.) supplemented by 10% by volume of fetal bovine serum (FBS), and subjected to the test.
As in the case of evaluation of neurocyte growth accelerating activity (Evaluation method A), 50 μl/well of each test compound solution, prepared by diluting with the culture medium to give a final concentration of 500 ng/ml, and the culture medium containing 20 ng/ml of mouse NGF (mouse derived, final concentration 10 ng/ml, commercialized by Chemicon International, Inc., CA, USA) (50 μl/well) were added to the precultured PC12-HS cells in each well, and then cultured for three days. Culture medium was removed on day 3 of culture, and cells were fixed by adding 100 μl/well of 10% by volume of glutaraldehyde and standing for 20 minutes at room temperature. As a negative control, PC12-HS cells, cultured for three days with culture medium, were fixed with glutaraldehyde similarly as above. Fixed cells were observed under a microscope to assess the neurite-outgrowth. The neurite-outgrowth rate (%) was determined by observing the cells using a microscope by adjusting the magnitude to give about 100 cells in one visual field, counting the number of cells having neurites twice or more in length of the cell body (major axis), dividing by the total number of cells in the same visual field, and multiplying by 100. Measurements were carried out at three points for each test compound. […] In this experiment, the neurite-outgrowth rate was 5% or less when NGF was added (final concentration 10 ng/ml) without the addition of the test compound.
The method was based on Experiment 1-1, except the concentrations of the test compounds were set to three doses of 40 nM, 200 nM and 1,000 nM for evaluation method A (neurocyte growth accelerating effect), and two doses of 200 nM and 1,000 nM for evaluation method B (neurite outgrowth promoting effect). Measurements were performed in triplicate for each concentration of each test compound in both evaluation methods A and B. The result of the evaluation method A was expressed as a cell proliferation rate (%) by determined a relative percentage (%) when the value of the negative control to which the test compound was not added, was regarded as 100%. […]

PC12-HS cells [2] = assay: Evaluation method A: neurocyte growth acceleration activity (Alamar blue); format: cell-based, rat; settings: for Action on PC12-HS growth acceleration (50 ng/ml): 3 days culture, class of cell proliferation rate vs negative control = 100%; for Cell proliferation rate (%): negative control = 100%; for neurocyte growth acceleration activity (in words): 40, 200 and 1,000 nM, comment on Table 2
Excerpt: as §1, §2
PC12-HS cells were subjected to tests after frozen stock cultured cells were thawed and cultured with a D-MEM medium supplemented with 10% by volume of FBS (Hereinafter, when the term “culture” is simply used, it means that the cells are statically cultured in an incubator controlled at 37° C. under 5% by volume of CO2 conditions). Cells used in the test were collected using 0.25% by weight of trypsin solution, then diluted with a D-MEM medium supplemented with 10% by volume of FBS (hereinafter referred to as “culture medium”), seeded into collagen-coated 96-well plates (commercialized by Falcon, Tokyo, Japan, “Microtest Plate, Cell Culture, Flat Bottom”) to obtain 5×10^3 cells/100 μl/well, and cultured for 24 hours (hereinafter referred to as “pre-culture”). Then, the above test samples were diluted with a culture medium, and 100 μl of diluted solution of the test compounds were added to each well so that the final concentration of the test compounds in the wells became 50 ng/ml, and the cells were cultured for another three days. On day 3, the cultures supernatant was removed from each well, 200 μl of culture medium containing 10% by volume of Alamar blue reagents (commercialized by Trek Diagnostic Systems Inc., Ohio, USA) were added to each well, and the cells were cultured for 6 hours. After culturing for 6 hours, the cells were measured for fluorescent intensity at a wavelength of 544-590 nm by “FlexStation 3”, a product name of a fluorescent plate reader (commercialized by Japan Molecular Devices Corporation, Tokyo, Japan). […] Measurements were performed for each test compound in triplicate, and the mean values were shown.
The method was based on Experiment 1-1, except the concentrations of the test compounds were set to three doses of 40 nM, 200 nM and 1,000 nM for evaluation method A (neurocyte growth accelerating effect), and two doses of 200 nM and 1,000 nM for evaluation method B (neurite outgrowth promoting effect). […]

## CCN1C(C)=CSC1=CC=Cc1scc(C)[n+]1CC.[I-] [NK-67]
PC12-HS cells [1]
  Action on PC12-HS neurite-outgrowth promotion (500 ng/ml): ◯ (When the mean neurite-outgrowth rate was 25 to 44%, it was judged to be equivalent to the positive control NK-4 (“circle”))

## CCCCCCCN1C(C)=CSC1=Cc1scc(C)[n+]1CCCCCCC.[I-] [NK-266]
PC12-HS cells [1]
  Action on PC12-HS neurite-outgrowth promotion (500 ng/ml): ◯ (When the mean neurite-outgrowth rate was 25 to 44%, it was judged to be equivalent to the positive control NK-4 (“circle”))

## CCN1C(=Cc2cc[n+](CC)c3ccccc23)C=Cc2ccccc21.[I-] [NK-276]
PC12-HS cells [1]
  Action on PC12-HS neurite-outgrowth promotion (500 ng/ml): ◯ (When the mean neurite-outgrowth rate was 25 to 44%, it was judged to be equivalent to the positive control NK-4 (“circle”))

## CCN1C(=CC=Cc2sc3ccc4ccccc4c3[n+]2CC)Sc2ccc3ccccc3c21.[I-] [NK-382]
PC12-HS cells [1]
  Action on PC12-HS neurite-outgrowth promotion (500 ng/ml): ◯ (When the mean neurite-outgrowth rate was 25 to 44%, it was judged to be equivalent to the positive control NK-4 (“circle”))

## CCCCN1C(C)=CSC1=Cc1scc(C)[n+]1CCCC.[I-] [NK-399]
PC12-HS cells [1]
  Action on PC12-HS neurite-outgrowth promotion (500 ng/ml): ◯ (When the mean neurite-outgrowth rate was 25 to 44%, it was judged to be equivalent to the positive control NK-4 (“circle”))

## CN(C)c1ccc(C=Cc2oc3ccccc3[n+]2C)cc1.[I-] [NK-528]
PC12-HS cells [2]
  Action on PC12-HS growth acceleration (50 ng/ml): ◯ (the relative value of 130% to 169% was judged to be equivalent to NK-4 (“circle”))
PC12-HS cells [1]
  Action on PC12-HS neurite-outgrowth promotion (500 ng/ml): ◯ (When the mean neurite-outgrowth rate was 25 to 44%, it was judged to be equivalent to the positive control NK-4 (“circle”))

## CC[n+]1ccccc1C=Cc1ccc(N(C)C)cc1.[I-] [NK-557]
PC12-HS cells [1]
  Action on PC12-HS neurite-outgrowth promotion (500 ng/ml): ◯ (When the mean neurite-outgrowth rate was 25 to 44%, it was judged to be equivalent to the positive control NK-4 (“circle”))

## Cc1ccc2c(c1)SC(=Cc1sc3cc(C)ccc3[n+]1C)N2C.[I-] [NK-594]
PC12-HS cells [1]
  Action on PC12-HS neurite-outgrowth promotion (500 ng/ml): ◯ (When the mean neurite-outgrowth rate was 25 to 44%, it was judged to be equivalent to the positive control NK-4 (“circle”))

## CCN1C(=CC=Cc2cc[n+](CC)c3ccccc23)Oc2ccccc21.[I-] [NK-741]
PC12-HS cells [1]
  Action on PC12-HS neurite-outgrowth promotion (500 ng/ml): ◯ (When the mean neurite-outgrowth rate was 25 to 44%, it was judged to be equivalent to the positive control NK-4 (“circle”))

## CCN1C(=Cc2oc3ccccc3[n+]2CC)Oc2ccccc21.[I-] [NK-863]
PC12-HS cells [1]
  Action on PC12-HS neurite-outgrowth promotion (500 ng/ml): ◯ (When the mean neurite-outgrowth rate was 25 to 44%, it was judged to be equivalent to the positive control NK-4 (“circle”))

## CCN1C(=Cc2ccc3ccccc3[n+]2CC)C=Cc2ccccc21.[Br-] [NK-1046]
PC12-HS cells [1]
  Action on PC12-HS neurite-outgrowth promotion (500 ng/ml): ◯ (When the mean neurite-outgrowth rate was 25 to 44%, it was judged to be equivalent to the positive control NK-4 (“circle”))

## CCN1C(=Cc2oc3ccccc3[n+]2CC)Sc2ccccc21.[I-] [NK-1049]
PC12-HS cells [1]
  Action on PC12-HS neurite-outgrowth promotion (500 ng/ml): ◯ (When the mean neurite-outgrowth rate was 25 to 44%, it was judged to be equivalent to the positive control NK-4 (“circle”))

## O=C1/C(=C\c2ccccc2)SC(=S)N1c1ccccc1 [NK-1075]
PC12-HS cells [2]
  Action on PC12-HS growth acceleration (50 ng/ml): ◯ (the relative value of 130% to 169% was judged to be equivalent to NK-4 (“circle”))

## CC1=NN(c2ccccc2)C(=O)/C1=C\c1ccccc1 [NK-1076]
PC12-HS cells [2]
  Action on PC12-HS growth acceleration (50 ng/ml): ◯ (the relative value of 130% to 169% was judged to be equivalent to NK-4 (“circle”))

## CC1=NN(c2ccccc2)C(=O)/C1=C\c1ccc(N(C)C)cc1 [NK-1107]
PC12-HS cells [2]
  Action on PC12-HS growth acceleration (50 ng/ml): ◯ (the relative value of 130% to 169% was judged to be equivalent to NK-4 (“circle”))

## CC(=Cc1oc2ccccc2[n+]1C)C=C1Oc2ccccc2N1C.[I-] [NK-1300]
PC12-HS cells [1]
  Action on PC12-HS neurite-outgrowth promotion (500 ng/ml): ◯ (When the mean neurite-outgrowth rate was 25 to 44%, it was judged to be equivalent to the positive control NK-4 (“circle”))

## CCN1C(=O)/C(=C\C=C\c2sc(=S)n(CC)c2O)SC1=S [NK-1451]
PC12-HS cells [2]
  Action on PC12-HS growth acceleration (50 ng/ml): ◯ (the relative value of 130% to 169% was judged to be equivalent to NK-4 (“circle”))

## CCN1C(=Cc2sc3ccccc3[n+]2CC)Sc2ccccc21.[Br-] [NK-1560]
PC12-HS cells [1]
  Action on PC12-HS neurite-outgrowth promotion (500 ng/ml): ◯ (When the mean neurite-outgrowth rate was 25 to 44%, it was judged to be equivalent to the positive control NK-4 (“circle”))

## CN1C(=CC2=[N+](C)c3ccccc3C2(C)C)Sc2ccccc21.[I-] [NK-1570]
PC12-HS cells [1]
  Action on PC12-HS neurite-outgrowth promotion (500 ng/ml): ◯ (When the mean neurite-outgrowth rate was 25 to 44%, it was judged to be equivalent to the positive control NK-4 (“circle”))

## CN1C(=CC2=[N+](C)c3ccccc3C2(C)C)Oc2ccccc21.[I-] [NK-1684]
PC12-HS cells [1]
  Action on PC12-HS neurite-outgrowth promotion (500 ng/ml): ◯ (When the mean neurite-outgrowth rate was 25 to 44%, it was judged to be equivalent to the positive control NK-4 (“circle”))

## O=C1/C(=C\C=C\c2sc3ccccc3c2O)Sc2ccccc21 [NK-1741]
PC12-HS cells [2]
  Action on PC12-HS growth acceleration (50 ng/ml): ◯ (the relative value of 130% to 169% was judged to be equivalent to NK-4 (“circle”))

## CC1(C)C(=CC=CC2=[N+](CCO)c3ccccc3C2(C)C)N(CCO)c2ccccc21.[Br-] [NK-1883]
PC12-HS cells [2]; 1.000 nM
  Cell proliferation rate (%): 87.5%
PC12-HS cells [2]; 40 nM
  Cell proliferation rate (%): 104.8%
PC12-HS cells [2]; 200 nM
  Cell proliferation rate (%): 105.1%
PC12-HS cells [2]
  neurocyte growth acceleration activity (in words): almost no growth acceleration activity
PC12-HS cells [1]; 1.000 nM
  Neurite-outgrowth rate (%): 13.3%
PC12-HS cells [1]; 200 nM
  Neurite-outgrowth rate (%): 13.3%

## O=S(=O)([O-])CCCN1CCSC1=CC=CC1=[N+](CCCS(=O)(=O)[O-])CCS1.[Na+] [NK-3134]
PC12-HS cells [2]; 1.000 nM
  Cell proliferation rate (%): 122.8%
PC12-HS cells [2]; 40 nM
  Cell proliferation rate (%): 103.9%
PC12-HS cells [2]
  Action on PC12-HS growth acceleration (50 ng/ml): ◯ (the relative value of 130% to 169% was judged to be equivalent to NK-4 (“circle”))
  neurocyte growth acceleration activity (in words): slightly weaker activity than NK-6 and NK-36
PC12-HS cells [2]; 200 nM
  Cell proliferation rate (%): 119.6%
PC12-HS cells [1]; 1.000 nM
  Neurite-outgrowth rate (%): 18.2%
PC12-HS cells [1]; 200 nM
  Neurite-outgrowth rate (%): 29.4%
PC12-HS cells [1]; 200 and 1,000 nM, comment on Table 2
  neurite-outgrowth promoting activity (in words): almost equivalent neurite-outgrowth promoting rate to NK-4
